Data taken from patent US11603355B2, “Charged ion channel blockers and methods for use” (Nocion Therapeutics, Inc., priority 2019, dated 2023).

What was measured:
NaV1.7 [1] = target: T1, NaV1.7 (Homo sapiens, UniProt Q15858); test: Manual patch clamp, internal block of NaV1.7 current; assay type: cell-based; conditions: compound in internal solution, HEK293 cells, read-out: Nav1.7 Intracellular Inhibition; for inhibition at 3 µM: % inhibition at 3 μM test concentration; for inhibition at 10 µM: % inhibition at 10 μM test concentration
T1 construct: expressed in transfected cells; host or cells: HEK293 (tetracycline-inducible)
T1 sequence (Q15858 whole entry): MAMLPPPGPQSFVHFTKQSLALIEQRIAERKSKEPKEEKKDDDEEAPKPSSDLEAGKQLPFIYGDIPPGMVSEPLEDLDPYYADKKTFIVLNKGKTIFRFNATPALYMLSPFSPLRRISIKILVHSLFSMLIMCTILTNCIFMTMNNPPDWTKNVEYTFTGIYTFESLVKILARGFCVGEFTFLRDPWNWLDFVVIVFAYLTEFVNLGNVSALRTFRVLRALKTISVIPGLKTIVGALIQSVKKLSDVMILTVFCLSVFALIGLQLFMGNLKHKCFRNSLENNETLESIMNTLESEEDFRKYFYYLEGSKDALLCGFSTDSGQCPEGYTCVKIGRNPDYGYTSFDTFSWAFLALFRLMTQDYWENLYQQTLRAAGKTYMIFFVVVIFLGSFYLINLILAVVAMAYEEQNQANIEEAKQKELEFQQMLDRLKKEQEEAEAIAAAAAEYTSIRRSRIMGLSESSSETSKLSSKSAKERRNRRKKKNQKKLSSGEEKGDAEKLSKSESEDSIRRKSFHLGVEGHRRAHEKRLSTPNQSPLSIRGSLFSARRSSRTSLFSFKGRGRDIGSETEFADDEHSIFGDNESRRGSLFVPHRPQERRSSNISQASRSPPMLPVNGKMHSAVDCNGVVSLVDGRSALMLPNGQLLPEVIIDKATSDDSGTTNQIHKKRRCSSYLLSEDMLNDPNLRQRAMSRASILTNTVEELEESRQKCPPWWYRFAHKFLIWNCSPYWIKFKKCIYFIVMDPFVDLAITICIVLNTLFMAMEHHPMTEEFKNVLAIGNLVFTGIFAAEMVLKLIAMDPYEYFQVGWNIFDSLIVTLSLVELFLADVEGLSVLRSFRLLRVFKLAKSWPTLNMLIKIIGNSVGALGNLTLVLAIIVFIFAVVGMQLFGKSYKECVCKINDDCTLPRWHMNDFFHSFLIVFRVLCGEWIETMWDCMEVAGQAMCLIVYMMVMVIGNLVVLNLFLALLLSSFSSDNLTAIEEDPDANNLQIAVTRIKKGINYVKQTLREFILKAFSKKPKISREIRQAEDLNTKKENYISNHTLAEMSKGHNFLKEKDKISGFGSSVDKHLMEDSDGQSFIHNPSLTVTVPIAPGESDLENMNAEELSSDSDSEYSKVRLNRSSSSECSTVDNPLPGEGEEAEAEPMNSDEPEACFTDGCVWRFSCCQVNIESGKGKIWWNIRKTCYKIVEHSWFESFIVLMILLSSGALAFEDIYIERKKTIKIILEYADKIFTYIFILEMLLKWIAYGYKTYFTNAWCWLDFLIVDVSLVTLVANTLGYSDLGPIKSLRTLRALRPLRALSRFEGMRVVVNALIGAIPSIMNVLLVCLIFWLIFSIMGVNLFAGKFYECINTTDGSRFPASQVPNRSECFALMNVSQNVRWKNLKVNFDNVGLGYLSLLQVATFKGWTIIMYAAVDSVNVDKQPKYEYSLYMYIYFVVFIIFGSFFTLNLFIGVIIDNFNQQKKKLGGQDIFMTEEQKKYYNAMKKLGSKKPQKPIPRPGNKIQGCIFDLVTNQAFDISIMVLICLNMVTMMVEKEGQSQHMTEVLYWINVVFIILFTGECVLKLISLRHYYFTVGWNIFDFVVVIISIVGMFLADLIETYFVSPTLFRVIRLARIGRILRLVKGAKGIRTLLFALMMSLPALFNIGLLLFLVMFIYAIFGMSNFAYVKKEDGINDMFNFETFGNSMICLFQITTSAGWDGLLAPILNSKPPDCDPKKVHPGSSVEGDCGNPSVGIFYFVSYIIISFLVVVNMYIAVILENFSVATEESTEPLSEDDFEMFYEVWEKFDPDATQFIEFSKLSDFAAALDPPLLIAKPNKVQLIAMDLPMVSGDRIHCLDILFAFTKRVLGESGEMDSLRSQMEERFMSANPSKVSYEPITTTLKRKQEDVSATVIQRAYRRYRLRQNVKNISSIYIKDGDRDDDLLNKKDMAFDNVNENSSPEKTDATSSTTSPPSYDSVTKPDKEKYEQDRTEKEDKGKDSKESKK
Experimental: (§1) Representative compounds of the invention were synthesized according to the described methods and tested for the ability to inhibit voltage-gated sodium channels.
(§2) NaV1.7 was expressed in HEK293 cells upon induction with tetracycline. Cells were cultured in DMEM containing 10% dialyzed Fetal Bovine Serum (VWR, Radnor, Pa.), 1% Glutamax (VWR, Radnor, Pa.), 1% Penicillin-Streptomycin (VWR, Radnor, Pa.), 100 mg/L Hygromycin (Thermo Fisher Scientific, Waltham, Mass. and 5 mg/L Blasticidin (Alfa Aesar, Haverhill, Mass.). Cells were grown and maintained at 37° C. in a humidified environment containing 10% CO2 in air. Cells were detached from the culture flask for passage and harvested using 0.05% Trypsin-EDTA (Thermo Fisher Scientific, Waltham, Mass.). To induce NaV1.7, cells were induced with tetracycline (0.1-1 μg/mL, IBI Scientific, Peosta, Iowa) the day before recording and plated onto 24-well plates. Cells were washed with DPBS (VWR, Radnor, Pa.), trypsinized and then triturated five times in 10 mL of growth media to break apart cell aggregates. For one 24-well plate, 2 mL of cell suspension was mixed with 23 mL of fresh growth media and 0.1-1 μg/mL tetracycline added. 1 ml of mixed media with cells was then added to each well of a 24-well plate, with a 12 mm coverslip already placed in the bottom of the well. Cells were then incubated in 37° C. and 10% CO2 overnight.
(§3) The intracellular solution contained the following (in mM) CsCl 135, NaCl 10, EGTA 10, HEPES 10, MgCl2 2, adjusted to pH 7.2 with CsOH. The external solution was a normal Ringer solution containing (in mM) NaCl 155, HEPES 10, glucose 10, KCl 3.5, CaCl2 1.5, MgCl2 1 adjusted to pH 7.4 with NaOH. CsCl is from Alfa Aesar, Haverhill, Mass. All other chemicals are from Sigma-Aldrich, St. Louis, Mo. In order to test the degree of internal block by test compounds the compounds were dissolved in internal solution at the indicated test concentration. […] In order to test the degree of external block by test compounds the compounds were dissolved in external solution at the indicated test concentration.
(§4) 18-24 hours after cells were induced with tetracycline, coverslips were placed into a chamber filled with Normal Ringer solution at room temperature and the chamber placed on a microscope. Pipettes were pulled from borosilicate glass on a P97 puller (Sutter Instrument, Novato, Calif.) and polished with a MF-830 Microforge (Narishige International USA, Inc., Amityville, N.Y.) to have a resistance of 1.5-2.5 MΩ when filled with CsCl internal solution at room temperature. Healthy cells (those that are round and translucent with no visible blemishes) were chosen for seal formation. A seal was formed between the pipette and the cell, and a brief pulse of suction was used to “break in” and establish the whole-cell configuration. The membrane potential was held at −100 mV before the voltage protocol began. Only cells with series resistance between 1.5-5 MΩ were retained for analysis. The voltage protocol was as follows: Cells were held at −100 mV for 12 ms followed by a hyperpolarizing step to −105 mV for 12 ms to monitor the leak. Cells were then stepped back to −100 mV for 40 ms. Cells were then depolarized to −20 mV for 10 ms and then returned to −100 mV for 26 ms.
(§5) Once the recording was started, the voltage protocol was run at 30 second intervals for 5 minutes to get a stable baseline. This was followed by four 30-second periods of 5 Hz stimulation of the same voltage protocol separated by 1 minute of rest which was then followed by 0.33 Hz stimulation after the last train. Currents were recorded using PatchMaster software with Heka EPC10 (HEKA Electronics, Lambrecht, Germany). Only cells with inward current amplitudes at −20 mV between 400 pA and 4 nA were accepted. In addition, cells having leak currents greater than 10% of their current amplitudes were discarded. […]

NaV1.7 [2] = target: T1, NaV1.7; test: Manual patch clamp, external block of NaV1.7 current; assay type: cell-based; conditions: % inhibition at 10 μM test concentration, compound in external solution, HEK293 cells, read-out: Nav1.7 Extracellular Inhibition
Experimental: as §1, §2, §3, §4
as §5, with “This is” for “This was”, “by” for “by four 30-second periods of”, “protocol run until the end” for “protocol separated by 1 minute”, “of experiment. […] The test compound is added for 5 minutes before washing out with normal Ringer's solution.” for “of rest which was then followed by 0.33 Hz stimulation after the last train.”

[3] = PAMPA membrane permeability assay; assay type: in vitro ADME; conditions: permeability coefficient, pH 7.4 buffer, GIT lipid, 4 hours incubation
How it was run: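 Passive diffusion across a GIT-lipid-painted artificial membrane at pH 7.4, with a 50 uM donor stock diluted from DMSO and a 4 h incubation. UV spectra of the donor, acceptor and reference plates were read, and the permeability coefficient was calculated from the AUCs, in 10^−6 cm/s.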

NaV1.7 [4] = target: T1, NaV1.7; test: Automated patch clamp (Qube 384), internal block of NaV1.7; assay type: cell-based; conditions: IC50, compound in internal solution, HEK293 cells, read-out: Nav1.7 Intracellular Inhibition
Experimental: NaV1.7 was expressed in HEK293 cells upon induction with tetracycline. Cells were cultured in DMEM containing 10% dialyzed Fetal Bovine Serum (VWR, Radnor, Pa.), 1% Glutamax (VWR, Radnor, Pa.), 1% Penicillin-Streptomycin (VWR, Radnor, Pa.), 100 mg/L Hygromycin (Thermo Fisher Scientific, Waltham, Mass. and 5 mg/L Blasticidin (Alfa Aesar, Haverhill, Mass.). Cells were grown and maintained at 37° C. in a humidified environment containing 10% CO2 in air. Cells were detached from the culture flask for passage and harvested using 0.05% Trypsin-EDTA (Thermo Fisher Scientific, Waltham, Mass.). To induce NaV1.7, cells were induced with tetracycline (0.1-1 μg/mL, IBI Scientific, Peosta, Iowa) the day before recording.
Before experiments, cells were washed with DPBS (VWR, Radnor, Pa.), digested with Detachin (VWR Radnor, Pa.) and then triturated 10 times in CHO Serum-Free Media (VWR Radnor, Pa.) to resuspend the cells and to break apart cell aggregates. Cells were counted and the final concentration was set at 2-5 million cells per mL.
The intracellular solution contained the following: 140 mM CsF, 1 mM/5 mM EGTA/CsOH, 10 mM HEPES, 10 mM NaCl, adjusted to pH 7.3 with CsOH, and osmolality to 320 with OSM solution. The external solution contained the following: 145 mM NaCl, 4 mM KCl, 1 mM MgCl2, 2 mM CaCl2), 10 mM HEPES, 10 mM Glucose, adjusted to pH 7.4 with CsOH and osmolality to 305 with OSM solution. The OSM solution was a normal Ringer solution containing (in mM) NaCl 155, HEPES 10, sucrose, KCl 3.5, CaCl2) 1.5, MgCl2 1 adjusted to pH 7.4 with NaOH. All chemicals are from Sigma-Aldrich, St. Louis, Mo. In order to test the degree of internal block by test compounds, the compounds were dissolved in internal solution at the indicated test concentration. […] In order to test the degree of external block by test compounds the compounds were dissolved in external solution at the indicated test concentration.
Automated Patch Clamps were performed on Qube 384 (Sophion Bioscience, Woburn Mass.) with multihole Qchips at a temperature setting of 22 degrees. The whole cells configuration was formed with default Qube seal and break-in parameter. The membrane potential was held at −100 mV before the voltage protocol began. Two voltage protocols were followed.
Step 1: Cells were held at −100 mV with a depolarized pulse to −20 mV for 10 ms, the interval was set at 5 s. Currents were corrected by default leak subtraction from every pulse. The duration was set at 5 mins.
Step 2: Cells were held at −100 mV with a depolarized pulse to −20 mV for 10 ms. The frequency was 5 Hz. Currents were corrected by leak subtraction calculated before step 2. The duration was set at 4 mins.
After Step 2, the Qchip was removed from the recording chamber. The internal solution was changed with solutions containing test compounds. Qchips were held at −100 mV without pulsing after being replaced in the recording chamber. The total solution switching time was 8 minutes. After the internal solution exchange, Cells were recorded and step 2 for repeated for 10 minutes.
Data analysis was performed by Sophion Analyzer. Cells were filtered with minimum 50 MOhm seal resistance and minimum 5 nA starting current. The rundown of the currents was corrected with control cells (Non-Drug). The remaining was calculated by averaging last 3 points in the end of experiments. The base line was calculated as the average of last 3 points of Step 2.
IC50 curves were plotted with DR-plots/Hill function (a dose-response plot with a Hill fit).
Representative examples of the invention were tested for intracellular inhibition of NaV 1.7 in the automated patch clamp assay. Activity Range is reported as IC50: “++++” (<0.3 μM), “+++” (0.3-1 μM), “++” (1-3 μM) or “+” (3-10 μM).

inhibition at 3 µM (NaV1.7 [1]) | inhibition at 10 µM (NaV1.7 [1]) | inhibition at 10 µM (NaV1.7 [2]) | PAMPA (10^−6 cm/s) [3] | IC50 (NaV1.7 [4]) | Compound
> 90% | > 95% | 40 to 70% | + (“+” (<0.1 10^−6 cm/s)) | – | Cc1cccc(C)c1NC(=O)C[N+]1(Cc2ccccc2)CCCCCC1.[Br-] [Compound 3A, 1-benzyl-1-(2-((2,6-dimethylphenyl)amino)-2-oxoethyl) azepan-1-ium bromide]
70 to 90% | 70 to 95% | < 40% | – | – | Cc1cccc(C)c1NC(=O)C[N+]1(Cc2ccccc2)CCCCC1 [Compound 4A, 1-benzyl-1-(2-((2,6-dimethylphenyl)amino)-2-oxoethyl)piperidin-1-ium bromide]
70 to 90% | 70 to 95% | < 40% | + (“+” (<0.1 10^−6 cm/s)) | – | CCC(C(=O)Nc1c(C)cccc1C)[N+]1(Cc2ccccc2)CCCCC1.[Br-] (stereo not drawn) [Compound 6A, 1-benzyl-1-(1-((2,6-dimethylphenyl)amino)-1-oxobutan-2-yl)piperidin-1-ium bromide]
70 to 90% | > 95% | < 40% | + (“+” (<0.1 10^−6 cm/s)) | – | CCC(C(=O)Nc1c(C)cccc1C)[N+]1(Cc2ccccc2F)CCCCC1 (stereo not drawn) [Compound 9A]
> 90% | – | 40 to 70% | – | 300 to 1000 nM | CCc1cccc(C)c1NC(=O)C[N+]1(Cc2ccccc2)CCCCCC1 [Compound 70A]
